This note sets out measurements from US6232294A, “Neuro-function regulatory agent” (Kabushiki Kaisha Hayashibara Seibutsu Kagaku Kenkyujo, priority 1997, dated 2001).

Data set [1] in a line: Acute toxicity test. The conditions noted are these: dose up to about 16 g per kg mouse (maximum challenged), intraperitoneal or oral, observed for a week.
Description: An adequate amount of "TREHAOSE®" , a crystalline trehalose powder commercialized by Hayashibara Shoji, Inc., Okayama, Japan, was dissolved in physiological saline containing 5 w/w % gum arabic, and the solution was sterilized in usual manner and intraperitoneally injected to ddy-mice, 20-25 g weight, in a group of 10 mice, or orally administered to the mice by using a stomach sonde. […] In parallel similar experiments were conducted using as glycosyl vitamin P "αG HESPERIDIN PA" with a total hesperidin content of 74-78%, d.s.b., a glycosyl hesperidin power commercialized by Hayashibara Shoji, Inc., Okayama, Japan, and "αG RUTIN PS" with a total rutin content of 80-82%, d.s.b., a glycosyl rutin powder commercialized by Hayashibara Shoji, Inc., Okayama, Japan.
Data set [2] in a line: Clinical test in volunteers with chronic fatigue syndrome or slight depression. It is filed as in vivo, human. The following applies: experiment conducted similarly with vitamin P.
Description: A medical technologist conducted the clinical experiment and 24 hours after the final administration asked the therapeutic effect and the side effects of the volunteers, and also asked the therapeutic effect and side effects of the volunteers on the basis of the relief of feeling of fatigue, malaise, loss of appetite, and insomnia, which were accompanied by the diseases. The therapeutic effect was evaluated based on four ranks; "very effective", "effective", "unchanged",and "worsened". The effectivity was expressed by a percentage of the number of volunteers, who answered "very effective" and "effective", to the total number of volunteers.

On to `OC[C@H]1O[C@H](O[C@H]2O[C@H](CO)[C@@H](O)[C@H](O)[C@H]2O)[C@H](O)[C@@H](O)[C@@H]1O` [TREHAOSE®, α,α-trehalose], for which the Mortality result in data set [1] is given as “no mouse died”.
For the compound vitamin P, the “Effect as compared with control (in words)” value in data set [2] was “no significant effect was found as compared with control”.
